This is an account of results in patent US10150728B2, “Alkylene derivatives” (Shionogi & Co., Ltd., priority 2013, dated 2018).

Each structure is given as a SMILES string.

recombinant human ACC2, sequence (O00763 27-2458): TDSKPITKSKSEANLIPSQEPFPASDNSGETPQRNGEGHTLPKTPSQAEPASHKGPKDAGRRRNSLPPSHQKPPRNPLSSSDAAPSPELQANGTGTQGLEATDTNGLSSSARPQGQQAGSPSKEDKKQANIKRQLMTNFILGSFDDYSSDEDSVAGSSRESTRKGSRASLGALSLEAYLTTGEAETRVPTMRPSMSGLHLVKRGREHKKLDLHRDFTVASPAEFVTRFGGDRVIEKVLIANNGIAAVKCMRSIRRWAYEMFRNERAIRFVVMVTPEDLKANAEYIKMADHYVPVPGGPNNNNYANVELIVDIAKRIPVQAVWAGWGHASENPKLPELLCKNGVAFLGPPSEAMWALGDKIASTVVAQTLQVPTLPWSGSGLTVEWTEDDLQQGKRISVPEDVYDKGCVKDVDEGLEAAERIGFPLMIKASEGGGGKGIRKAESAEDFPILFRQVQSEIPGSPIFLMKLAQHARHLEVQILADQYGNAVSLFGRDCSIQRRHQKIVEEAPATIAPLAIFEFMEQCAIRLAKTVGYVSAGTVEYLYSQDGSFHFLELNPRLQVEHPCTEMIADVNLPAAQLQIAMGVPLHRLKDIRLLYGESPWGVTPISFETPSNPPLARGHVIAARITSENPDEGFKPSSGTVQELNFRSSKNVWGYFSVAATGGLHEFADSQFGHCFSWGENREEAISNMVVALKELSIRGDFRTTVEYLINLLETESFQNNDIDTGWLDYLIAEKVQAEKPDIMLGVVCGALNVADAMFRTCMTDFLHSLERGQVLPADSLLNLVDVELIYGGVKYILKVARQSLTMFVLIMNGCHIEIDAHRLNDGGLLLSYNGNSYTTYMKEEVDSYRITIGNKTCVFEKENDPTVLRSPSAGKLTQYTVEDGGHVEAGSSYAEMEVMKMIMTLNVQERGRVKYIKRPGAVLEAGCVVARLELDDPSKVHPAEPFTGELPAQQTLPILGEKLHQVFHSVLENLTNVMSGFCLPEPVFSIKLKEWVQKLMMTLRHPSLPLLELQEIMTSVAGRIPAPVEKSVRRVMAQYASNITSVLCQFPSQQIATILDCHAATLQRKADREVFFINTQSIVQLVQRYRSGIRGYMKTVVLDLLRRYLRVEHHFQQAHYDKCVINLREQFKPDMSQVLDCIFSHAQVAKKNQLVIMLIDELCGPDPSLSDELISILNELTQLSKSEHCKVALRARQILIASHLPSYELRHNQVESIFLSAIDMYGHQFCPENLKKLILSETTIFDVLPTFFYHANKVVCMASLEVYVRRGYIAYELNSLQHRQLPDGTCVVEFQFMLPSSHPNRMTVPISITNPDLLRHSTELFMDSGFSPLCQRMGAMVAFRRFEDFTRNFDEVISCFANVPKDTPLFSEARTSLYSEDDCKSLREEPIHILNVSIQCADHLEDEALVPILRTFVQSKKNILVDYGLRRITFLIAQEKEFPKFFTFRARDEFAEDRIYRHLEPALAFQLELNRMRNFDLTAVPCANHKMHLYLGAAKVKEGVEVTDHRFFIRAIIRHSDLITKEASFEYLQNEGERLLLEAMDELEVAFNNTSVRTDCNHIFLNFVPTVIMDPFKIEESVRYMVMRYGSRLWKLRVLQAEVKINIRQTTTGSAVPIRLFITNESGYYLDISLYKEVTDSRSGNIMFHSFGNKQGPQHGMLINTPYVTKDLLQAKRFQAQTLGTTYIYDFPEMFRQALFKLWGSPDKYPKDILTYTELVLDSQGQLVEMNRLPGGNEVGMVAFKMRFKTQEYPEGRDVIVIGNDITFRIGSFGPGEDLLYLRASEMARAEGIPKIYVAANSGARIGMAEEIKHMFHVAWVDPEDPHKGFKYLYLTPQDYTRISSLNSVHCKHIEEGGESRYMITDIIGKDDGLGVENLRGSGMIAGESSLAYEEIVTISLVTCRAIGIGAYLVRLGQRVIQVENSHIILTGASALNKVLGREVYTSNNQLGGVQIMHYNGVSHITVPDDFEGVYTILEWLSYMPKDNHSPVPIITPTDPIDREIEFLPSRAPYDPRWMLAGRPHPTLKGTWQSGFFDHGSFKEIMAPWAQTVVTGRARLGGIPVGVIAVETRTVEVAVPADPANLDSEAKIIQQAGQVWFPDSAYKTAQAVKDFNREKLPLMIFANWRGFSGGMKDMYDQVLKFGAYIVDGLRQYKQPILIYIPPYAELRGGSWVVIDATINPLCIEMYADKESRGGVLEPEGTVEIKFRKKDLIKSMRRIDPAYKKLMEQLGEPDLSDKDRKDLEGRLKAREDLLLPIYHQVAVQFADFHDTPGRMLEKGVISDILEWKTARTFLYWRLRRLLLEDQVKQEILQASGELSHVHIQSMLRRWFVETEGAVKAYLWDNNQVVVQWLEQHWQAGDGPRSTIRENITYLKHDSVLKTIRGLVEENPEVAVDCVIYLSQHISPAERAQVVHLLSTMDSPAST

In this experiment the target is recombinant human ACC2 (Homo sapiens (Human), UniProt O00763). Put plainly: Measurement of inhibitory activity on human ACC2 (MALDI-TOF MS, acetyl CoA to malonyl CoA conversion). In kind it is biochemical. As to conditions: Tables 155-159. From the text:
Preparation 1: Preparation of Recombinant Human ACC2
After a cDNA encoding human ACC2 (27 amino acid residue to 2458 amino acid residues from the N-terminus) was cloned from human kidney cDNA library (Clontech), human ACC2 gene containing His-tag sequence at 5′ terminus was inserted into pFastBac1 (Invitrogen). Recombinant baculovirus was generated using Bac-to-Bac baculovirus expression system (Invitrogen) according to the manufacturer's protocol. To express human ACC2, Sf-9 cells were infected with recombinant baculovirus. After infected cells were disrupted, the filtrated lysate was subjected to Ni-affinity chromatography and anion-exchange chromatography. The fractions containing human ACC2 protein were pooled as recombinant human ACC2 solution.
The Measurement of Inhibitory Activity on Human ACC1 and the ACC2
Recombinant human ACC1 and recombinant human ACC2, which were prepared by the method mentioned above, were preincubated with assay buffer solution (50 mM HEPES-KOH (pH 7.4), 10 mM magnesium chloride, 6-10 mM potassium citrate, 4 mM reduced form of glutathione, 1.5 mg/ml bovine serum albumin) for one hour. Then, 0.2 μL of each this invention compound solution (in DMSO) were dispensed to 384-well microplate, 5 μL of the preincubated enzyme solution and 5 μL of substrate solution (50 mM HEPES-KOH (pH 7.4), 1 mM ATP, 0.8 mM acetyl CoA and 25-50 mM potassium bicarbonate) were added to microplate. After centrifugation and shaking, the reaction mixtures were incubated in a humidified box at room temperature for 1 to 3 hours. After the incubation, the enzyme reactions were stopped by the addition of EDTA. Then, after the samples were cocrystallized with CHCA (α-cyano-4-hydroxy cinnamic acid) matrices on MALDI target plate, by using the matrix assist laser […] time-of-flight mass spectrometer (MALDI-TOF MS), samples were measured in reflector negative mode. Deprotonated ions of acetyl CoA (AcCoA) of substrate and malonyl CoA (MalCoA) of the reaction product were detected, then, the conversion rates of acetyl CoA to malonyl CoA was calculated by the intensity of [MalCoA-H]−/(Intensity of [MalCoA-H]−+Intensity of [AcCoA-H]−) using each signal strength. […] In addition, potassium citrate concentrations in assay buffer solution, potassium hydrogen carbonate concentrations in substrate solution and incubation time were adjusted by each lot of enzyme.
`CC(=O)N[C@@H](C)CO[C@H]1C[C@H](COc2c(F)cc3nc(C(C)C)sc3c2Cl)C1` [Compound I-132]: the IC50 was 48 nM. The figure for `CC(=O)N[C@@H](C)CO[C@H]1C[C@H](COc2cc3sc(C(C)C)nc3cc2F)C1` [Compound I-133] is 77 nM; for `CC(=O)N[C@@H](C)CO[C@H]1CC[C@H](Oc2ccc3nc(C4(F)COC4)sc3c2F)CC1` [Compound I-134] it is 23 nM. The same measure for `CC(=O)N[C@@H](C)CO[C@H]1C[C@H](COc2ccc3nc(C(C)C)sc3n2)C1` [Compound I-135]: 16 nM; for `CC(=O)N[C@@H](C)CO[C@H]1C[C@](F)(COc2ccc3nc(C(C)(F)F)sc3c2F)C1` [Compound I-136]: 87 nM. The same measure for `CC(=O)N[C@@H](C)CO[C@H]1C[C@](F)(COc2ccc3nc(C(C)(F)F)sc3c2Cl)C1` [Compound I-137]: 403 nM; for `CC(=O)N[C@@H](C)CO[C@H]1C[C@H](COc2ccc3nc(C4(F)CC4)sc3c2F)C1` [Compound I-138]: 91 nM.

As for `CC(=O)N[C@@H](C)CO[C@H]1C[C@H](COc2ccc3nc(C(C)(F)F)sc3c2)C1` [Compound I-139], the half-maximal inhibitory concentration (IC50) came to 90 nM. As to `CC(=O)N[C@@H](C)CO[C@H]1C[C@H](COc2ccc3nc(OC[C@@H](C)F)sc3c2)C1` [Compound I-140], the half-maximal inhibitory concentration (IC50) amounted to 144 nM. The same measure for `CC(=O)N[C@@H](C)CO[C@H]1C[C@H](COc2c(Cl)cc3nc(C(C)C)sc3c2Cl)C1` [Compound I-141]: 80 nM. The same measure for `C[C@@H](CO[C@H]1CC[C@H](Oc2ccc3nc(C(C)(F)F)sc3c2F)CC1)NS(C)(=O)=O` [Compound I-142]: 181 nM; for `C[C@@H](CO[C@H]1CC[C@H](Oc2ccc3nc(C(C)(F)F)sc3c2F)CC1)NC(=O)CO` [Compound I-143]: 120 nM; for `CC(=O)N[C@@H](C)CO[C@H]1C[C@](F)(COc2ccc3nc(C(C)C)sc3n2)C1` [Compound I-144]: 127 nM. The same measure for `CCC(O)(CC)c1nc2ccc(O[C@H]3CC[C@H](OC[C@H](C)NC(C)=O)CC3)c(F)c2s1` [Compound I-145]: 190 nM; for `CC(=O)N[C@@H](C)CO[C@H]1CC[C@H](Oc2ccc3nc(C4(O)CCCC4)sc3c2F)CC1` [Compound I-146]: 44 nM; for `CC(=O)N[C@@H](C)CO[C@H]1C[C@H](COc2ccc3nc(C(C)(F)F)sc3n2)C1` [Compound I-147]: 12 nM.

As to `CC(=O)N[C@@H](C)CO[C@H]1C[C@H](COc2ccc3nc(C(C)(C)O)sc3c2)C1` [Compound I-148], the IC50 amounted to 404 nM. As for `CC(=O)N[C@@H](C)CO[C@H]1CC[C@H](Oc2ccc3nc(OCC(C)(C)C#N)sc3c2F)CC1` [Compound I-149], the IC50 was 63 nM. As for `CC(=O)N[C@@H](C)CO[C@H]1CC[C@H](Oc2ccc3nc(OCC4(C#N)CC4)sc3c2F)CC1` [Compound I-150], the IC50 is 36 nM. The same measure for `CC(=O)N[C@@H](C)CO[C@H]1C[C@H](COc2ccc3nc(OCC(F)F)sc3c2F)C1` [Compound I-151]: 75 nM. The same measure for `CC(=O)N[C@@H](C)CO[C@H]1C[C@H](COc2ccc3nc(OCC(F)(F)F)sc3c2F)C1` [Compound I-152]: 64 nM. The figure for `CC(=O)N[C@@H](C)CO[C@H]1C[C@H](COc2ccc3nc(OC(C)C)sc3c2F)C1` [Compound I-153] is 43 nM; for `CC(=O)N[C@@H](C)CO[C@H]1C[C@H](COc2ccc3nc(OC4CC4)sc3c2F)C1` [Compound I-154] it is 17 nM. Take `CC(=O)N[C@@H](C)CO[C@H]1C[C@H](COc2ccc3nc(OC4CCC4)sc3c2F)C1` [Compound I-155]: the IC50 came out at 25 nM. The same measure for `CC(=O)N[C@@H](C)CO[C@H]1C[C@H](COc2ccc3nc(Oc4ccc(F)cc4)sc3c2F)C1` [Compound I-156]: 12 nM. The figure for `CCOc1nc2ccc(OC[C@H]3C[C@H](OC[C@H](C)NC(C)=O)C3)nc2s1` [Compound I-157] is 3 nM. The figure for `C[C@@H](CO[C@H]1CC[C@H](Oc2ccc3nc(C(C)(F)F)sc3c2F)CC1)NC(N)=O` [Compound I-158] is 48 nM. In the case of `CC(=O)N[C@@H](C)CO[C@H]1C[C@H](COc2cc3sc(C(C)(C)O)nc3cc2F)C1` [Compound I-159], the IC50 is 641 nM. The figure for `CC(=O)N[C@@H](C)CO[C@H]1C[C@](F)(COc2ccc3nc(C(C)(C)O)sc3c2F)C1` [Compound I-160] is 809 nM; for `CC(=O)N[C@@H](C)CO[C@H]1CC[C@H](Oc2ccc3nc(O[C@H]4C[C@H](C#N)C4)sc3c2F)CC1` [Compound I-161] it is 146 nM. With `CC(=O)N[C@@H](C)CO[C@H]1CC[C@H](Oc2ccc3nc(O[C@H]4C[C@@H](C#N)C4)sc3c2F)CC1` [Compound I-162], the IC50 is 74 nM. The figure for `CCOc1nc2ccc(OC[C@]3(F)C[C@@H](OC[C@H](C)NC(C)=O)C3)nc2s1` [Compound I-163] is 39 nM. The same measure for `CCOc1nc2cc(F)c(OC[C@]3(F)C[C@@H](OC[C@H](C)NC(C)=O)C3)nc2s1` [Compound I-164]: 39 nM; for `CCOc1nc2cc(F)c(OC[C@H]3C[C@H](OC[C@H](C)NC(C)=O)C3)nc2s1` [Compound I-165]: 7 nM; for `C[C@@H](CO[C@H]1CC[C@H](Oc2ccc3nc(C(C)(F)F)sc3c2F)CC1)NC(=O)C1COC1` [Compound I-166]: 30 nM. The same measure for `CC(=O)N[C@@H](C)CO[C@H]1CC[C@H](Oc2ccc3nc(N4CC(C)(C)C4)sc3c2F)CC1` [Compound I-167]: 59 nM. With `CC(=O)N[C@@H](C)CO[C@H]1CC[C@H](Oc2cc3sc(OC(C)CF)nc3cc2Cl)CC1` (some centres unmarked) [Compound I-168], the IC50 came to 95 nM. For `CC(=O)N[C@@H](C)CO[C@H]1C[C@H](COc2ccc3nc(OCC(F)F)sc3n2)C1` [Compound I-169], the IC50 was 10 nM. Turning to `CC(=O)N[C@@H](C)CO[C@H]1C[C@H](COc2ccc3nc(OCC(F)(F)F)sc3n2)C1` [Compound I-170], the IC50 came out at 6 nM. The same measure for `CC(=O)N[C@@H](C)CO[C@H]1C[C@H](COc2ccc3nc(C(C)(C)O)sc3n2)C1` [Compound I-171]: 152 nM; for `CC(=O)N[C@@H](C)CO[C@H]1C[C@H](COc2ccc3nc(OC4CC4)sc3n2)C1` [Compound I-172]: 13 nM. The figure for `CC(=O)N[C@@H](C)CO[C@H]1C[C@H](COc2ccc3nc(OC(C)C)sc3n2)C1` [Compound I-173] is 5 nM; for `CC(=O)N[C@@H](C)CO[C@H]1C[C@](F)(COc2cc3sc(C(C)C)nc3cn2)C1` [Compound I-174] it is 931 nM; for `CC(=O)N[C@@H](C)CO[C@H]1CC[C@H](Oc2ccc3nc(N4CC(F)(F)C4)sc3c2F)CC1` [Compound I-175] it is 11 nM. The figure for `CC(=O)N[C@@H](C)CO[C@H]1CC[C@H](Oc2ccc3nc(N4CCOCC4)sc3c2F)CC1` [Compound I-176] is 42 nM; for `CCOc1nc2ccc(O[C@H]3CC[C@H](OC[C@H](C)NC(C)=O)CC3)cc2s1` [Compound I-177] it is 6 nM. As to `CCOc1nc2ccc(O[C@H]3CC[C@H](OC[C@H](C)NC(C)=O)CC3)nc2s1` [Compound I-178], the IC50 stood at 3 nM. `CCOc1nc2cnc(O[C@H]3CC[C@H](OC[C@H](C)NC(C)=O)CC3)cc2s1` [Compound I-179]: the concentration for half-maximal inhibition (IC50) came out at 28 nM. The same measure for `CC(=O)N[C@@H](C)CO[C@H]1C[C@H](COc2nc3sc(OCC(F)F)nc3cc2F)C1` [Compound I-180]: 21 nM. For the compound `CC(=O)N[C@@H](C)CO[C@H]1C[C@H](COc2nc3sc(OCC(F)(F)F)nc3cc2F)C1` [Compound I-181], the half-inhibitory concentration (IC50) worked out at 14 nM.

Consider `CC(=O)N[C@@H](C)CO[C@H]1C[C@H](COc2nc3sc(OC(C)C)nc3cc2F)C1` [Compound I-182], for which the IC50 came to 12 nM. For the compound `CC(=O)N[C@@H](C)CO[C@H]1CC[C@H](Oc2cc3sc(OCC4CC4)nc3cn2)CC1` [Compound I-183], the IC50 was found to be 14 nM. The figure for `CC(=O)N[C@@H](C)CO[C@H]1CC[C@H](Oc2cc3sc(OCC(F)(F)F)nc3cn2)CC1` [Compound I-184] is 54 nM; for `CC(=O)N[C@@H](C)CO[C@H]1CC[C@H](Oc2cc3sc(OCC(F)F)nc3cn2)CC1` [Compound I-185] it is 44 nM. The figure for `CCOc1nc2cc(F)c(O[C@H]3CC[C@H](OC[C@H](C)NC(C)=O)CC3)nc2s1` [Compound I-186] is 5 nM. For the compound `CC(=O)N[C@@H](C)CO[C@H]1CC[C@H](Oc2ccc3nc(N4CC(C)(O)C4)sc3c2F)CC1` [Compound I-187], the IC50 is 234 nM.
